Results published in ChEMBL document CHEMBL2150939, “Synthesis and cytotoxicity of novel ursolic acid derivatives containing an acyl piperazine moiety” (Eur J Med Chem, 2012).
Calls of active or inactive are those of the source. The calls are words filed in the database; no cut-off is given here.

Columns and labels:
[1] = system: Bcap37; assay: Growth inhibition of human Bcap37 cells at 10 uM after 72 hrs by MTT assay; format: functional; conditions: Bcap37, 72 h, read-out: GI
[2] = system: MGC-803; assay: Growth inhibition of human MGC803 cells at 10 uM after 72 hrs by MTT assay; format: functional; conditions: MGC-803, 72 h, read-out: GI
[3] = Growth inhibition of mouse NIH/3T3 cells at 10 uM after 72 hrs by MTT assay; format: cell-based, NIH3T3; conditions: read-out: GI
[4] = system: Bcap37; assay: Antiproliferative activity against human Bcap37 cells after 72 hrs by MTT assay; format: functional, cell-based; conditions: Bcap37, 72 h
[5] = system: MGC-803; assay: Antiproliferative activity against human MGC803 cells after 72 hrs by MTT assay; format: functional, cell-based; conditions: MGC-803, 72 h
[6] = system: MGC-803; assay: Induction of apoptosis in human MGC803 cells assessed as DNA fragmentation at 10 uM after 24 hrs by TUNEL assay; format: functional, cell-based
[7] = system: MGC-803; assay: Induction of apoptosis in human MGC803 cells assessed as early and late apoptotic level at 10 uM after 24 hrs by annexinV/FITC-PI staining-based flow cytometric analysis; format: functional
[8] = system: MGC-803; assay: Induction of apoptosis in human MGC803 cells assessed as early and late apoptotic level at 10 uM after 12 hrs by annexinV/FITC-PI staining-based flow cytometric analysis; format: functional
[9] = system: MGC-803; assay: Induction of apoptosis in human MGC803 cells assessed as early and late apoptotic level at 10 uM after 36 hrs by annexinV/FITC-PI staining-based flow cytometric analysis; format: functional
[10] = system: MGC-803; assay: Induction of apoptosis in human MGC803 cells at 10 uM after 48 hrs by acridine orange/ethidium bromide staining; format: functional, cell-based
[11] = system: MGC-803; assay: Induction of apoptosis in human MGC803 cells assessed as condensed chromatin at 10 uM after 48 hrs by Hoechst 33258 staining; format: functional, cell-based

Row | SMILES | inhibition of growth at 10 µM [1] [%] | inhibition of growth at 10 µM [2] [%] | inhibition at 72 h, 10 µM [3] [%] | IC50 ([4]; read-out: IC50) [µM] | IC50 [5] [µM] | Activity [6] | Activity [7] [%] | Activity [8] [%] | Activity [9] [%] | Activity [10] | Activity [11] | IC50 [4] [µM]
1 | C[C@H]1[C@H](C)CC[C@]2(C(=O)OCCN3CCN(C(=O)c4ccc([N+](=O)[O-])cc4)CC3)CC[C@]3(C)C(=CC[C@@H]4[C@@]5(C)CC[C@H](O)C(C)(C)[C@@H]5CC[C@]43C)[C@H]12 | 19.1 | 24.3 | 65.4 |  |  |  |  |  |  |  |  | 
2 | C[C@H]1[C@H](C)CC[C@]2(C(=O)OCCN3CCN(C(=O)c4ccccc4C(F)(F)F)CC3)CC[C@]3(C)C(=CC[C@@H]4[C@@]5(C)CC[C@H](O)C(C)(C)[C@@H]5CC[C@]43C)[C@H]12 | 38.6 | 71.2 | 16.2 | 10.9 | 8.72 |  |  |  |  |  |  | 
3 | C[C@H]1[C@H](C)CC[C@]2(C(=O)OCCN3CCN(C(=O)/C=C/c4ccccc4)CC3)CC[C@]3(C)C(=CC[C@@H]4[C@@]5(C)CC[C@H](O)C(C)(C)[C@@H]5CC[C@]43C)[C@H]12 | 54.4 | 51.1 | 39 | 9.22 | 12.6 |  |  |  |  |  |  | 
4 | Cc1ccccc1C(=O)N1CCN(CCOC(=O)[C@]23CC[C@@H](C)[C@H](C)[C@H]2C2=CC[C@@H]4[C@@]5(C)CC[C@H](O)C(C)(C)[C@@H]5CC[C@@]4(C)[C@]2(C)CC3)CC1 | 94.8 | 98.9 | 60.3 | 5.34 | 3.59 |  |  |  |  |  |  | 
5 | C[C@H]1[C@H](C)CC[C@]2(C(=O)OCCN3CCN(C(=O)c4ccc(F)cc4)CC3)CC[C@]3(C)C(=CC[C@@H]4[C@@]5(C)CC[C@H](O)C(C)(C)[C@@H]5CC[C@]43C)[C@H]12 | 83.7 | 71.8 | 71.3 | 5.12 | 7.29 |  |  |  |  |  |  | 
6 | CC[C@@]1(O)C(=O)OCc2c1cc1n(c2=O)Cc2cc3cc(O)ccc3nc2-1 [HYDROXYCAMPTOTHECIN] | 28.1 | 29.1 | 9.3 | > 20 | > 20 | Active | 18.66 | 17.37 | 24.95 | Active | Active | 
7 | C[C@H]1[C@H](C)CC[C@]2(C(=O)OCCN3CCN(C(=O)c4c(F)cccc4Cl)CC3)CC[C@]3(C)C(=CC[C@@H]4[C@@]5(C)CC[C@H](O)C(C)(C)[C@@H]5CC[C@]43C)[C@H]12 | 85.3 | 92.1 | 24.4 | 4.32 | 4.18 |  |  |  |  |  |  | 
8 | C[C@H]1[C@H](C)CC[C@]2(C(=O)OCCN3CCN(C(=O)c4cc([N+](=O)[O-])cc([N+](=O)[O-])c4)CC3)CC[C@]3(C)C(=CC[C@@H]4[C@@]5(C)CC[C@H](O)C(C)(C)[C@@H]5CC[C@]43C)[C@H]12 | 10.7 | 24.7 | 37.2 |  |  |  |  |  |  |  |  | 
9 | C=C/C=C/CC(=O)N1CCN(CCOC(=O)[C@]23CC[C@@H](C)[C@H](C)[C@H]2C2=CC[C@@H]4[C@@]5(C)CC[C@H](O)C(C)(C)[C@@H]5CC[C@@]4(C)[C@]2(C)CC3)CC1 | 14.7 | 23.4 | 35 |  |  |  |  |  |  |  |  | 
10 | C[C@H]1[C@H](C)CC[C@]2(C(=O)OCCN3CCN(C(=O)c4ccnc(Cl)c4)CC3)CC[C@]3(C)C(=CC[C@@H]4[C@@]5(C)CC[C@H](O)C(C)(C)[C@@H]5CC[C@]43C)[C@H]12 | 19 | 24.1 | 44.3 |  |  |  |  |  |  |  |  | 
11 | C[C@H]1[C@H](C)CC[C@]2(C(=O)OCCN3CCN(C(=O)c4ccccc4Cl)CC3)CC[C@]3(C)C(=CC[C@@H]4[C@@]5(C)CC[C@H](O)C(C)(C)[C@@H]5CC[C@]43C)[C@H]12 | 69.1 | 93 | 29.8 | 7.26 | 4.66 |  |  |  |  |  |  | 
12 | CCCCC(CC)C(=O)N1CCN(CCOC(=O)[C@]23CC[C@@H](C)[C@H](C)[C@H]2C2=CC[C@@H]4[C@@]5(C)CC[C@H](O)C(C)(C)[C@@H]5CC[C@@]4(C)[C@]2(C)CC3)CC1 (some centres not stated) | 68.6 | 80.8 | 54.5 | 4.16 | 6.89 |  |  |  |  |  |  | 
13 | C[C@H]1[C@H](C)CC[C@]2(C(=O)OCCN3CCN(C(=O)c4cc(Cl)ccc4[N+](=O)[O-])CC3)CC[C@]3(C)C(=CC[C@@H]4[C@@]5(C)CC[C@H](O)C(C)(C)[C@@H]5CC[C@]43C)[C@H]12 | 33.2 | 57.3 | 77.7 |  | 9.41 |  |  |  |  |  |  | 
14 | C[C@H]1[C@H](C)CC[C@]2(C(=O)OCCN3CCN(C(=O)c4cccc(F)c4)CC3)CC[C@]3(C)C(=CC[C@@H]4[C@@]5(C)CC[C@H](O)C(C)(C)[C@@H]5CC[C@]43C)[C@H]12 | 32.1 | 45.3 | 33.5 |  | > 20 |  |  |  |  |  |  | 
15 | COc1cccc2c1C(=O)c1c(O)c3c(c(O)c1C2=O)C[C@@](O)(C(=O)CO)C[C@@H]3O[C@H]1C[C@H](N)[C@H](O)[C@H](C)O1 [DOXORUBICIN] | 92.1 | 92.1 | 99.2 |  | 0.7 |  |  |  |  |  |  | 1.28
16 | CCCCCCCCC(=O)N1CCN(CCOC(=O)[C@]23CC[C@@H](C)[C@H](C)[C@H]2C2=CC[C@@H]4[C@@]5(C)CC[C@H](O)C(C)(C)[C@@H]5CC[C@@]4(C)[C@]2(C)CC3)CC1 | 12.5 | 44.2 | 12 |  | > 20 |  |  |  |  |  |  | 
17 | C[C@H]1[C@H](C)CC[C@]2(C(=O)OCCN3CCN(C(=O)c4cccnc4)CC3)CC[C@]3(C)C(=CC[C@@H]4[C@@]5(C)CC[C@H](O)C(C)(C)[C@@H]5CC[C@]43C)[C@H]12 | 24.5 | 22 | 52.3 |  |  |  |  |  |  |  |  | 
18 | CC(C)c1ccc(C(=O)N2CCN(CCOC(=O)[C@]34CC[C@@H](C)[C@H](C)[C@H]3C3=CC[C@@H]5[C@@]6(C)CC[C@H](O)C(C)(C)[C@@H]6CC[C@@]5(C)[C@]3(C)CC4)CC2)cc1 | 45.5 | 72.3 | 5.5 | 11.8 | 5.02 |  |  |  |  |  |  | 
19 | C[C@H]1[C@H](C)CC[C@]2(C(=O)OCCN3CCN(C(=O)c4ccc(F)cc4F)CC3)CC[C@]3(C)C(=CC[C@@H]4[C@@]5(C)CC[C@H](O)C(C)(C)[C@@H]5CC[C@]43C)[C@H]12 | 60.5 | 32.1 | 18.1 | 8.31 | 12.5 |  |  |  |  |  |  | 
20 | COc1ccc(C(=O)N2CCN(CCOC(=O)[C@]34CC[C@@H](C)[C@H](C)[C@H]3C3=CC[C@@H]5[C@@]6(C)CC[C@H](O)C(C)(C)[C@@H]6CC[C@@]5(C)[C@]3(C)CC4)CC2)cc1OC | 51.8 | 24.5 | 73.1 | 11.1 |  |  |  |  |  |  |  | 
21 | C[C@H]1[C@H](C)CC[C@]2(C(=O)OCCN3CCNCC3)CC[C@]3(C)C(=CC[C@@H]4[C@@]5(C)CC[C@H](O)C(C)(C)[C@@H]5CC[C@]43C)[C@H]12 | 84.4 | 86.6 | 60.1 | 7.5 | 7.25 |  |  |  |  |  |  | 
22 | C[C@H]1[C@H](C)CC[C@]2(C(=O)OCCN3CCN(C(=O)c4cccnc4Cl)CC3)CC[C@]3(C)C(=CC[C@@H]4[C@@]5(C)CC[C@H](O)C(C)(C)[C@@H]5CC[C@]43C)[C@H]12 | 29 | 34.3 | 4.3 |  | 14 |  |  |  |  |  |  | 
23 | C[C@H]1[C@H](C)CC[C@]2(C(=O)OCCBr)CC[C@]3(C)C(=CC[C@@H]4[C@@]5(C)CC[C@H](O)C(C)(C)[C@@H]5CC[C@]43C)[C@H]12 | 23.1 | 39.4 | 11 |  | 12.4 |  |  |  |  |  |  | 
24 | C[C@H]1[C@H](C)CC[C@]2(C(=O)OCCN3CCN(C(=O)c4ccccc4)CC3)CC[C@]3(C)C(=CC[C@@H]4[C@@]5(C)CC[C@H](O)C(C)(C)[C@@H]5CC[C@]43C)[C@H]12 | 23.9 | 21.4 | 19.1 |  |  |  |  |  |  |  |  | 
25 | C[C@H]1[C@H](C)CC[C@]2(C(=O)OCCN3CCN(C(=O)Cc4ccc(Cl)cc4)CC3)CC[C@]3(C)C(=CC[C@@H]4[C@@]5(C)CC[C@H](O)C(C)(C)[C@@H]5CC[C@]43C)[C@H]12 | 52 | 68.6 | 2.9 | 10 | 8.59 |  |  |  |  |  |  | 
26 | C[C@H]1[C@H](C)CC[C@]2(C(=O)OCCN3CCN(C(=O)c4ccncc4)CC3)CC[C@]3(C)C(=CC[C@@H]4[C@@]5(C)CC[C@H](O)C(C)(C)[C@@H]5CC[C@]43C)[C@H]12 | 8.3 | 32.1 | 55.4 |  | 13.3 |  |  |  |  |  |  | 
